“Also recorded” adds a separate entry of the source. Like-named read-outs stand apart in the source and are kept apart here. Residues, ends and D or L forms follow the SMILES beside them.
What was measured:
Arg-βgal = experiment: Steady state β-galactosidase activity, cells expressing Arg-βgal; conditions: for in vivo metabolic stabilization of Arg-βgal (βgal activity relative to untreated control): 2 hours incubation with dipeptide
Method: (§1) Saccharomyces cerevisiaecells of the strain BWGl-7a (MATa his4 ade1 ura3 leu2) were transformed with plasmids using conventional techniques (F. Sherman et al. Methods in Yeast Genetics Cold Spring Harbor Laboratory, N.Y., 1981). The transformed cells were grown at 30° C. in a medium of 2% galactose, 0.67% Yeast Nitrogen Base without amino acids (Difco), adenine (10 μg/mL), histidine (20 μg/mL) and leucine (60 ug/mL).

[1] = test system: yeast (S.cerevisiae) cells; experiment: Effect on yeast cell growth (optical density at 600 nm)
Method: as §1
The effect of 10 mM of leucine methyl ester (Leu methyl ester) on growth of exponentially growing yeast cells harboring a plasmid expressing either arginine-βgal (Arg-βgal, .largecircle., .circle-solid.) or leucine-βgal (Leu-βgal, .quadrature.,.box-solid.), supplemented with nothing (.largecircle.,.box-solid.) or with Leu methyl ester to a 10 mM final concentration (.box-solid.,.circle-solid.), was assessed. Results are represented in FIG. 1. Growth under each of these conditions was monitored by optical density at 600 nm.

Tyr-βgal = experiment: Pulse-chase experiment in vivo and half-life determination, Tyr-βgal; type: cell-based, Saccharomyces cerevisiae; conditions: for in vivo half-life (metabolic stabilization) of Tyr-βgal: 4 hour incubation
Method: (§2) Transformed cells were grown as described above, except that methionine (20 ug/mL) was included, to an optical density of about 0.5 at 600 nm. Amino acid derivatives were added and incubation continued for 4 to 5 hours until the optical density was approximately 1.0. Cells from a 10 mL culture were harvested by filtration through the well of a microtiter filtration plate. Subsequently, the cells were washed several times on the filter in the growth medium lacking methionine, and resuspended in 0.4 mL of 1% galactose, 50 mM potassium phosphate buffer (pH 7.4). (^35 S)methionine (100 uCi) was then added for a specified pulse time. The cells were collected by filtration and resuspended in 0.4 mL of the growth medium containing cycloheximide (0.2 mg/mL) and trichodermin (50 ug/mL). Samples (0.1 mL) were withdrawn at indicated times, and added to 0.8 mL of cold Buffer A (50 mM Na-HEPES pH 7.5, 0.15M NaCl, 5 mM EDTA, 1% TRiton X-100) containing leupeptin, pepstatin A, antipain, aprotinin and chymostatin (Sigma), (each at 20 ug/mL) in addition to 0.4 mL of glass beads. The cells were disrupted by vortexing three times for one minute at 4° C. The extracts were centrifuged at 12,000 g for 10 minutes and the radioactivity of acid-insoluble ^35 S in the supernatants was determined. Aliquots of the supernatants containing equal amounts of total acid-insoluble ^35 S were processed for immunoprecipitation with a monoclonal antibody to βgal. Ascitic fluid containing a molar excess of the antibody (at least ten-fold) was added to each aliquot, with subsequent incubation on ice for 1 to 2 hours. Protein A-Sepharose (Pharmacia) was then added and the suspension was incubated with rocking at 4° C. for 30 minutes and centrifuged at 12,000 g for thirty seconds. The protein A-Sepharose pellets were washed three times in Buffer A containing 0.1% SDS, resuspended in an SDS, dithiothreitol (DTT)-containing electrophoretic sample buffer, heated at 100° C. for 3 minutes, and centrifuged at 12,000 g for 20 seconds. (Laemmli, Nature 227, 680 (1970)). The supernatants were subjected to electrophoresis in a 6% discontinuous polyacrylamide-SDS gel (150 by 150 by 1.5 mm), with subsequent fluorography.
(§3) After fluorography of the pulse-chase gels, the amount of radioactivity in each band was detected by scintillation counting of the respective gel slices. Half-lives were calculated from these values (appropriately adjusted using the value from a blank gel slice) assuming a first-order kinetics of protein breakdown.
A pulse-chase experiment (3 minute pulse) was carried out with cells expressing Tyr-βgal in the absence (A) or presence (B) of a 4 hour incubation with 10 mM Leu methyl ester. Timepoints: 0 min (lane 1); 10 min (lane 2); 30 min (lane 3); and 60 min (lane 4). See legend to FIG. 6 for band designations.

[2] = test system: X-βgal proteins with bulky hydrophobic amino termini (Phe-βgal, Leu-βgal, Trp-βgal, Tyr-βgal, Ile-βgal); experiment: Steady state β-galactosidase activity, X-βgal proteins with bulky hydrophobic amino-terminal residues; type: cell-based, Saccharomyces cerevisiae; conditions: 1 hour incubation
Method: (§4) Incubation was continued at 30° C.

Leu-βgal [3] = experiment: Steady state β-galactosidase activity, cells expressing Leu-βgal; type: cell-based, Saccharomyces cerevisiae; conditions: 10 mM
Method: as §4
Control cultures (.largecircle., .quadrature.) received no methyl ester.
Exponentially growing yeast cells harboring a plasmid expressing Leu- βal were supplemented with Leu methyl ester to the 10 mM final concentration (zero time) and assayed for βgal activity over a 7 hour time course (.box-solid.). A control culture (.quadrature.) received no methyl ester.

Val-βgal = experiment: Steady state β-galactosidase activity, cells expressing Val-βgal (control); type: cell-based, Saccharomyces cerevisiae; conditions: Leu-OMe 0 to 10 mM, 1 hour incubation
Method: as §4

Leu-βgal [4] = type: cell-based, Saccharomyces cerevisiae; conditions: for half-life (metabolic stabilization) of Leu-βgal in the presence of Leu methyl ester: 10 mM, 3 hour incubation
Method: as §2, §3
A pulse-chase experiment (5 minute pulse) was carried out with cells expressing Val-βgal (A), or Leu-βgal in the presence (B) or absence (C) of a 3 hour incubation with 10 mM Leu methyl ester. Timepoints: 0 min (lane 1); 10 min (lane 2); and 30 min (lane 3). Bands are labelled: βgal (β-galactosidase); 90 kD (a cleavage product of βgal; note its absence from the lanes with metabolically stable Val-βgal lanes); X (an unrelated protein species crossreacting with the monoclonal antibody to βgal); and S (a βgal cleavage product apparently specific for metabolically stable X-βgal; species).
A pulse-chase experiment (5 minute pulse) was carried out with cells expressing Val-βgal (A), Leu-βgal (B), Leu-βgal plus 10 mM L-Ala-L-Trp (C), and Leu-βgal plus 10 mM L-Trp-L-Ala (D). Incubation with each dipeptide was carried out for 4 hours. Timepoints: 0 min (lane 1); 10 min (lane 2); and 30 min (lane 3). See legend to FIG. 6 for band designations.

[5] = dipeptides, over the time periods used (data not shown)
[6] = 10 mM Leu methyl ester vs minus OMe

## C[C@H](N)C(=O)N[C@@H](CCCNC(=N)N)C(=O)O [L-Ala-L-Arg, L-alanine-L-arginine, reference compound] (H-Ala-Arg-OH)
Arg-βgal
  in vivo metabolic stabilization of Arg-βgal (βgal activity relative to untreated control): no effect
[1]; [5]
  effect on yeast cell growth: no adverse effect

## C[C@H](N)C(=O)N[C@@H](Cc1c[nH]c2ccccc12)C(=O)O [L-Ala-L-Trp, reference compound] (H-Ala-Trp-OH)
[1]
  effect on yeast cell growth: no adverse effect

## C[C@@H](NC(=O)[C@@H](N)CCCNC(=N)N)C(=O)O [L-Arg-D-Ala] (HELM PEPTIDE1{R.[dA]}$$$$V2.0)
Arg-βgal
  in vivo metabolic stabilization of Arg-βgal (βgal activity relative to untreated control): stronger metabolic stabilization; also recorded: much better in vivo metabolic stabilizer

## C[C@H](NC(=O)[C@@H](N)CCCN=C(N)N)C(=O)O [L-Arg-L-Ala, L-arginine-L-alanine] (H-Arg-Ala-OH)
[1]; [5]
  effect on yeast cell growth: no adverse effect

## C[C@H](NC(=O)[C@@H](N)Cc1c[nH]c2ccccc12)C(=O)O [L-Trp-L-Ala, L-tryptophan-L-alanine] (H-Trp-Ala-OH)
[1]
  effect on yeast cell growth: no adverse effect

## COC(=O)[C@@H](N)CC(C)C [Leu methyl ester, leucine methyl ester]
Tyr-βgal; 10 mM Leu methyl ester
  amounts of the 90 kD cleavage product: decrease
  in vivo half-life (metabolic stabilization) of Tyr-βgal: metabolic stabilization
Tyr-βgal; [6]
  increase in half-life of Tyr-βgal: 4.8 fold
Tyr-βgal; 10 mM Leu methyl ester, 3 minute pulse
  zero-time increase in the amount of Tyr-βgal protein: 3.3 fold
Tyr-βgal; 10 mM Leu methyl ester, listed as Leu-OMe
  in vivo half-life (metabolic stabilization) of Tyr-βgal: increased
[2]
  concentration at which the effect reaches saturation: 5 to 10 mM
[2]; Leu-OMe 0 to 10 mM
  levels of all 5 X-βgal proteins with bulky hydrophobic amino termini: increased
Leu-βgal [3]; 3 hours incubation, varying initial OD600
  steady state activity (amount) of Leu-βgal: specifically increases
Leu-βgal [3]; 7 hour time course, Leu-βgal
  increase in βgal level per hour (slope of line of best fit, compared with control levels): 11 fold per hour
Leu-βgal [3]; first 7 hours
  magnitude of the effect on Leu-βgal levels over time: increases linearly with time
Val-βgal
  effect on Val-βgal level: No effect
Arg-βgal; 10 mM Leu methyl ester, 3 hours incubation, varying initial OD600
  amount of Arg-βgal: does not increase
Arg-βgal; Leu-OMe 0 to 10 mM, 1 hour incubation
  effect on Arg-βgal level: No effect
Leu-βgal [4]; 10 mM Leu methyl ester
  90 kD βgal cleavage product: much diminished
Leu-βgal [4]; [6]
  increase in half-life of Leu-βgal: 3 fold
Leu-βgal [4]; 10 mM Leu methyl ester, 5 minute pulse
  zero-time increase in the amount of Leu-βgal protein (βgal band, lane 1): 1.9 fold
Leu-βgal [4]
  half-life (metabolic stabilization) of Leu-βgal in the presence of Leu methyl ester: metabolic stabilization
Leu-βgal [4]; listed as Leu-OMe
  half-life (metabolic stabilization) of Leu-βgal in the presence of Leu methyl ester: increased
Leu-βgal [4]; listed as leucine methyl ester
  half-life (metabolic stabilization) of Leu-βgal in the presence of Leu methyl ester: extended
[1]; 10 mM Leu methyl ester, exponentially growing cells expressing Arg-βgal or Leu-βgal
  effect on cell growth: no adverse effects

Reference: US5766927A, “Inhibition of protein degradation in living cells with dipeptides” (Massachusetts Institute of Technology, priority 1994, dated 1998)
